From PubChem BioAssay (NCI)
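Briefly, cells in 96-well plates were exposed to five compound concentrations for 48 h, and endpoints were estimated by linear interpolation. GI50 marks 50% less growth. TGI marks complete inhibition of growth.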

What was measured:
Test in all cases: NCI tumour cell line growth inhibition, 48 h
HCT-116 colon = system: HCT-116 colon
RPMI-8226 leukemia = system: RPMI-8226 leukemia
OVCAR-8 ovarian = system: OVCAR-8 ovarian
OVCAR-3 ovarian = system: OVCAR-3 ovarian
KM12 colon = system: KM12 colon
NCI-H23 lung = system: NCI-H23 lung
A549 NSCLC = system: A549 NSCLC
NCI-H522 lung = system: NCI-H522 lung
MCF7 breast = system: MCF7 breast
DU-145 prostate = system: DU-145 prostate
NCI-H460 lung = system: NCI-H460 lung
K-562 leukemia = system: K-562 leukemia
NCI-H226 lung = system: NCI-H226 lung
HOP-92 NSCLC = system: HOP-92 NSCLC
UO-31 renal = system: UO-31 renal
SNB-75 CNS = system: SNB-75 CNS
RXF 393 renal = system: RXF 393 renal
U251 CNS = system: U251 CNS
SK-MEL-28 melanoma = system: SK-MEL-28 melanoma
HT29 colon = system: HT29 colon
SF-295 CNS = system: SF-295 CNS
HS 578T breast = system: HS 578T breast
SF-539 CNS = system: SF-539 CNS
COLO 205 colon = system: COLO 205 colon
SF-268 CNS = system: SF-268 CNS
IGROV1 ovarian = system: IGROV1 ovarian
UACC-257 melanoma = system: UACC-257 melanoma
LOX IMVI melanoma = system: LOX IMVI melanoma
MDA-MB-435 = system: MDA-MB-435
M14 melanoma = system: M14 melanoma
SN12C renal = system: SN12C renal
BT-549 breast = system: BT-549 breast
HL-60(TB) leukemia = system: HL-60(TB) leukemia
CAKI-1 renal = system: CAKI-1 renal
CCRF-CEM leukemia = system: CCRF-CEM leukemia
SK-OV-3 ovarian = system: SK-OV-3 ovarian
SK-MEL-2 melanoma = system: SK-MEL-2 melanoma
HCT-15 colon = system: HCT-15 colon
MALME-3M melanoma = system: MALME-3M melanoma
SNB-19 CNS = system: SNB-19 CNS
ACHN renal = system: ACHN renal
SK-MEL-5 melanoma = system: SK-MEL-5 melanoma
TK-10 renal = system: TK-10 renal
UACC-62 melanoma = system: UACC-62 melanoma
MOLT-4 leukemia = system: MOLT-4 leukemia
EKVX NSCLC = system: EKVX NSCLC
SW-620 colon = system: SW-620 colon
HOP-62 NSCLC = system: HOP-62 NSCLC
MDA-MB-231 breast = system: MDA-MB-231 breast
SR leukemia = system: SR leukemia
OVCAR-4 ovarian = system: OVCAR-4 ovarian
HCC-2998 colon = system: HCC-2998 colon
T-47D breast = system: T-47D breast
786-0 renal = system: 786-0 renal
PC-3 prostate = system: PC-3 prostate
OVCAR-5 ovarian = system: OVCAR-5 ovarian
A498 renal = system: A498 renal
NCI/ADR-RES ovarian = system: NCI/ADR-RES ovarian

`COc1ccc(C=Nc2c(C(=O)Nc3cccc(Cl)c3C)sc3nc(C)c(C(=O)/C=C/c4ccc(OC)cc4)cc23)cc1` was tested, and the GI50 (HCT-116 colon) was 362 nM, the TGI (HCT-116 colon) was over 50 µM and the GI50 (RPMI-8226 leukemia) was 1500 nM. It also gave a TGI (RPMI-8226 leukemia) of over 50 µM, a GI50 (OVCAR-8 ovarian) of 1380 nM and a TGI (OVCAR-8 ovarian) of over 50 µM. The GI50 (OVCAR-3 ovarian) was 267 nM, the TGI (OVCAR-3 ovarian) was 5.95 µM and the GI50 (KM12 colon) was 894 nM. For the same compound, the TGI (KM12 colon) was over 43.9 µM, the GI50 (NCI-H23 lung) was 917 nM and the TGI (NCI-H23 lung) was 17.1 µM. It also gave a GI50 (A549 NSCLC) of 1610 nM, a TGI (A549 NSCLC) of over 50 µM and a GI50 (NCI-H522 lung) of 157 nM. It also gave a GI50 (MCF7 breast) of 293 nM, a TGI (MCF7 breast) of over 50 µM and a GI50 (DU-145 prostate) of 638 nM. The TGI (DU-145 prostate) was 14.6 µM, the GI50 (NCI-H460 lung) was 1930 nM and the TGI (NCI-H460 lung) was over 29.7 µM. For the same compound, the GI50 (K-562 leukemia) was 259 nM, the TGI (K-562 leukemia) was over 50 µM and the GI50 (NCI-H226 lung) was 621 nM. For the same compound, the TGI (NCI-H226 lung) was 11.7 µM, the GI50 (HOP-92 NSCLC) was 590 nM and the TGI (HOP-92 NSCLC) was 7.12 µM. It also gave a GI50 (UO-31 renal) of 2040 nM, a TGI (UO-31 renal) of over 50 µM and a GI50 (SNB-75 CNS) of 191 nM. The TGI (SNB-75 CNS) was 1880 nM, the GI50 (RXF 393 renal) was 163 nM and the TGI (RXF 393 renal) was 906 nM. For the same compound, the GI50 (U251 CNS) was 1560 nM, the TGI (U251 CNS) was 18.4 µM and the GI50 (SK-MEL-28 melanoma) was 288 nM. It also gave a TGI (SK-MEL-28 melanoma) of over 50 µM, a GI50 (HT29 colon) of 306 nM and a TGI (HT29 colon) of over 50 µM. It also gave a GI50 (SF-295 CNS) of 362 nM, a TGI (SF-295 CNS) of 8.43 µM and a GI50 (HS 578T breast) of 458 nM. The TGI (HS 578T breast) was 7.67 µM, the GI50 (SF-539 CNS) was 449 nM and the TGI (SF-539 CNS) was 2410 nM. The GI50 (COLO 205 colon) was 1820 nM, the TGI (COLO 205 colon) was 23.8 µM and the GI50 (SF-268 CNS) was 1600 nM. For the same compound, the TGI (SF-268 CNS) was over 50 µM, the GI50 (IGROV1 ovarian) was 1320 nM and the TGI (IGROV1 ovarian) was over 50 µM. It also gave a GI50 (UACC-257 melanoma) of 2880 nM, a TGI (UACC-257 melanoma) of over 50 µM and a GI50 (LOX IMVI melanoma) of 666 nM. The TGI (LOX IMVI melanoma) was over 50 µM, the GI50 (MDA-MB-435) was 103 nM and the TGI (MDA-MB-435) was 227 nM. For the same compound, the GI50 (M14 melanoma) was 201 nM, the TGI (M14 melanoma) was 1570 nM and the GI50 (SN12C renal) was 853 nM. It also gave a TGI (SN12C renal) of over 50 µM, a GI50 (BT-549 breast) of 787 nM and a TGI (BT-549 breast) of over 38.5 µM. The GI50 (HL-60(TB) leukemia) was 1270 nM, the TGI (HL-60(TB) leukemia) was over 22 µM and the GI50 (CAKI-1 renal) was 652 nM. The TGI (CAKI-1 renal) was over 50 µM, the GI50 (CCRF-CEM leukemia) was 819 nM and the TGI (CCRF-CEM leukemia) was over 50 µM. For the same compound, the GI50 (SK-OV-3 ovarian) was 958 nM, the TGI (SK-OV-3 ovarian) was over 50 µM and the GI50 (SK-MEL-2 melanoma) was 980 nM. The TGI (SK-MEL-2 melanoma) was 36.1 µM, the GI50 (HCT-15 colon) was 382 nM and the TGI (HCT-15 colon) was over 50 µM. It also gave a GI50 (MALME-3M melanoma) of 599 nM, a TGI (MALME-3M melanoma) of over 50 µM and a GI50 (SNB-19 CNS) of 1580 nM. It also gave a TGI (SNB-19 CNS) of 28.3 µM, a GI50 (ACHN renal) of 425 nM and a TGI (ACHN renal) of over 50 µM. It also gave a GI50 (SK-MEL-5 melanoma) of 856 nM, a TGI (SK-MEL-5 melanoma) of over 50 µM and a GI50 (TK-10 renal) of 4.12 µM. It also gave a TGI (TK-10 renal) of over 50 µM, a GI50 (UACC-62 melanoma) of 312 nM and a TGI (UACC-62 melanoma) of over 23.1 µM. The GI50 (MOLT-4 leukemia) was 3.68 µM, the TGI (MOLT-4 leukemia) was over 50 µM and the GI50 (EKVX NSCLC) was 2240 nM. For the same compound, the TGI (EKVX NSCLC) was over 50 µM, the GI50 (SW-620 colon) was 412 nM and the TGI (SW-620 colon) was over 50 µM. It also gave a GI50 (HOP-62 NSCLC) of 1050 nM, a TGI (HOP-62 NSCLC) of over 27.5 µM and a GI50 (MDA-MB-231 breast) of 383 nM. For the same compound, the TGI (MDA-MB-231 breast) was 2260 nM, the GI50 (SR leukemia) was 421 nM and the TGI (SR leukemia) was over 50 µM. For the same compound, the TGI (OVCAR-4 ovarian) was over 50 µM, the GI50 (HCC-2998 colon) was 9.89 µM and the TGI (HCC-2998 colon) was over 50 µM. It also gave a GI50 (T-47D breast) of 1280 nM, a TGI (T-47D breast) of over 50 µM and a GI50 (786-0 renal) of 656 nM. The TGI (786-0 renal) was over 30 µM, the GI50 (PC-3 prostate) was 281 nM and the TGI (PC-3 prostate) was over 50 µM. For the same compound, the GI50 (OVCAR-5 ovarian) was 2040 nM, the TGI (OVCAR-5 ovarian) was over 50 µM and the GI50 (A498 renal) was 196 nM. For the same compound, the TGI (A498 renal) was 2490 nM, the GI50 (NCI/ADR-RES ovarian) was 197 nM and the TGI (NCI/ADR-RES ovarian) was 1170 nM.
